In patent US20110178041A1, “HETEROCYCLIC BIARYL DERIVATIVE AND PDE INHIBITOR COMPRISING SAME AS ACTIVE INGREDIENT” (priority 2008, published 2011):

Biological target: T1, PDE4B catalytic zone (PDE4Bcat) (Homo sapiens, UniProt Q07343)
T1 construct: made in house; host or cells: Sf9 insect cells (baculovirus, Bac-to-Bac / Gateway)
Assay: Phosphodiesterase 4 inhibitory activity ([3H]-cAMP, recombinant PDE4Bcat)
Format: biochemical
Details: 30° C. 20 minutes, read-out: IC50 (μmol/L) PDE4

T1 sequence (Q07343 330-659 limits assumed): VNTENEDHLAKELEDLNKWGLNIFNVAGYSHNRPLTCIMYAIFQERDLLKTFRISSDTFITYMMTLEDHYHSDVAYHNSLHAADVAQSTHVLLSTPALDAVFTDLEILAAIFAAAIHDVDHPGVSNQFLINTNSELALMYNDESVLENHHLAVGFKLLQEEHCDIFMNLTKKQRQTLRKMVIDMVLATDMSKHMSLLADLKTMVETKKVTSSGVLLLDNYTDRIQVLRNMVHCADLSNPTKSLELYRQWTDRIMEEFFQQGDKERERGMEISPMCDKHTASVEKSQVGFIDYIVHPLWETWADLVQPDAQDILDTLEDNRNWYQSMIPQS

IC50 [µmol/L] | Compound
< 0.01 | COc1ccc(-c2ccc3[nH]c(=O)ccc3c2)c2cc(C(F)(F)F)nn12 [Example 50, 6-(7-Methoxy-2-trifluoromethylpyrazolo[1,5-a]pyridin-4-yl)quinolin-2(1H)-one]
0.01 to 0.1 | COc1ccc(-c2cc(=O)[nH]c3ccccc23)c2cc(C(F)(F)F)nn12 [Example 51, 4-(7-Methoxy-2-trifluoromethylpyrazolo[1,5-a]pyridin-4-yl)quinolin-2(1H)-one]
0.01 to 0.1 | COc1ccc(-c2cccc3c(=O)[nH]ccc23)c2cc(C(F)(F)F)nn12 [Example 52, 5-(7-Methoxy-2-trifluoromethylpyrazolo[1,5-a]pyridin-4-yl)iso quinolin-1(2H)-one]
< 0.01 | COc1ccc(-c2ccc3cc[nH]c(=O)c3c2)c2cc(C(F)(F)F)nn12 [Example 54, 7-(7-Methoxy-2-trifluoromethylpyrazolo[1,5-a]pyridin-4-yl)iso quinolin-1(2H)-one]
0.01 to 0.1 | COc1ccc(-c2ccc3c(c2)CCC(=O)N3)c2cc(C(F)(F)F)nn12 [Example 56, 6-(7-Methoxy-2-trifluoromethylpyrazolo[1,5-a]pyridin-4-yl)-3,4-dihydroquinolin-2(1H)-one]
0.01 to 0.1 | COc1ccc(-c2ccc3c(c2)CC(=O)N3)c2cc(C(F)(F)F)nn12 [Example 57, 5-(7-Methoxy-2-trifluoromethylpyrazolo[1,5-a]pyridin-4-yl)indolin-2-one]
< 0.01 | COc1ccc(-c2ccc3[nH]c(=O)ccc3c2)c2c(Cl)c(C(F)(F)F)nn12 [Example 61, 6-(3-Chloro-7-methoxy-2-trifluoromethylpyrazolo[1,5-a]pyridin-4-yl)quinolin-2(1H)-one]
< 0.01 | CNc1ccc(-c2ccc3[nH]c(=O)ccc3c2)c2c(Cl)c(C(F)(F)F)nn12 [Example 65, 6-(3-Chloro-7-methylamino-2-trifluoromethylpyrazolo[1,5-a]pyridin-4-yl)quinolin-2(1H)-one]
< 0.01 | CNc1ccc(-c2ccc3c(c2)CCNC3=O)c2c(Cl)c(C(F)(F)F)nn12 [Example 66]
0.01 to 0.1 | CCc1ccc2c(-c3ccc4[nH]c(=O)ccc4c3)ccc(OC)c2n1 [Example 67, 2-Ethyl-8-methoxy-5,6′-biquinolin-2′(1′H)-one]
0.01 to 0.1 | COc1ccc(-c2ccc3[nH]c(=O)ccc3c2)c2ccc(C)nc12 [Example 68, 8-Methoxy-2-methyl-5,6′-biquinolin-2′(1′H)-one]
0.01 to 0.1 | COc1ccc(-c2ccc3[nH]c(=O)ccc3c2)c2ccc(C(F)(F)F)nc12 [Example 69, 8-Methoxy-2-trifluoromethyl-5,6′-biquinolin-2′(1′H)-one]
< 0.01 | COc1ccc(-c2ccc3[nH]c(=O)ccc3c2)c2nc(C(F)(F)F)nn12 [Example 70, 6-(5-Methoxy-2-trifluoromethyl[1,2,4]triazolo[1,5-a]pyridin-8-yl) quinolin-2(1H)-one]
< 0.01 | COc1ccc(-c2ccc3[nH]c(=O)ccc3c2)c2sc(C(F)(F)F)nc12 [Example 71, 6-(4-Methoxy-2-trifluoromethylbenzo[d]thiazol-7-yl)quinolin-2(1H)-one]
0.01 to 0.1 | COc1ccc(-c2ccc3[nH]c(=O)ccc3c2)c2c1OCNC2=O [Example 72, 8-Methoxy-5-(2-oxo-1,2-dihydroquinolin-6-yl)-2H-benzo[e][1,3]oxazin-4-(3H)-one]
0.01 to 0.1 | COc1ccc(-c2ccc3[nH]c(=O)ccc3c2)c2c1OCC(=O)N2 [Example 74, 8-Methoxy-5-(2-oxo-1,2-dihydroquinolin-6-yl)-2H-benzo[b][1,4]oxazin-3(4H)-one]
0.01 to 0.1 | COc1ccc(-c2ccc3c(=O)[nH]ccc3c2)c2cccnc12 [Example 80, 6-(8-Methoxyquinolin-5-yl)isoquinolin-1(2H)-one]
0.01 to 0.1 | CCc1ccc2c(-c3ccc4cc[nH]c(=O)c4c3)ccc(OC)c2n1 [Example 83, 7-(2-Ethyl-8-methoxyquinolin-5-yl)isoquinolin-1(2H)-one]
< 0.01 | COc1ccc(-c2ccc3[nH]c(=O)ccc3c2)c2nccnc12 [Example 86, 6-(8-Methoxyquinoxalin-5-yl)quinolin-2(1H)-one]
0.01 to 0.1 | CCc1cc2c(-c3ccc4[nH]c(=O)ccc4c3)ccc(OC)n2n1 [Example 87, 6-(2-Ethyl-7-methoxypyrazolo[1,5-a]pyridin-4-yl)quinolin-2(1H)-one]
0.01 to 0.1 | COc1ccc(-c2ccc3[nH]c(=O)ccc3c2)c2cncnc12 [Example 88, 6-(8-methoxyquinazolin-5-yl)quinolin-2(1H)-one]
0.01 to 0.1 | COc1ccc(-c2ccc3[nH]c(=O)ccc3c2)n2cc(C(F)(F)F)nc12 [Example 90, 6-(8-Methoxy-2-trifluoromethylimidazo[1,2-a]pyridin-5-yl)quinolin-2(1H)-one]

IC50 [µmol/L] | Compound
< 0.01 | COc1ccc(-c2ccc3c(ccc(=O)n3C)c2)c2cc(C(F)(F)F)nn12 [Example 91, 6-(7-Methoxy-2-trifluoromethylpyrazolo[1,5-a]pyridin-4-yl)-1-methyl quinolin-2(1H)-one]
0.01 to 0.1 | CCOC(=O)Cn1c(=O)ccc2cc(-c3ccc(OC)n4nc(C(F)(F)F)cc34)ccc21 [Example 92, Ethyl 2-(6-(7-methoxy-2-trifluoromethylpyrazolo[1,5-a]pyridin-4-yl)-2-oxo-quinolin-2(1H)-yl)acetate]
0.01 to 0.1 | COc1ccc(-c2ccc3c(ccc(=O)n3CC(=O)O)c2)c2cc(C(F)(F)F)nn12 [Example 93, 2-(6-(7-Methoxy-2-trifluoromethylpyrazolo[1,5-a]pyridin-4-yl)-2-oxoquinolin-2(1H)-yl)acetic acid]
< 0.01 | COc1ccc(-c2ccc3c(ccc(=O)n3Cc3ccccc3)c2)c2cc(C(F)(F)F)nn12 [Example 94, 1-Benzyl-6-(7-methoxy-2-trifluoromethylpyrazolo[1,5-a]pyridin-4-yl)quinolin-2(1H)-one]
0.01 to 0.1 | COc1ccc(-c2ccc3[nH]c(=O)ccc3c2)c2cc(C(F)(F)F)sc12 [Example 111]
< 0.01 | CCc1nc2c(OC)ccc(-c3ccc4[nH]c(=O)ccc4c3)c2o1 [Example 112, 6-(2-Ethyl-4-methoxybenzo[d]oxazol-7-yl)quinolin-2(1H)-one]
< 0.01 | COc1ccc(-c2ccc3[nH]c(=O)ccc3c2)c2cc(C3CC3)nn12 [Example 114, 6-(2-Cyclopropyl-7-methoxypyrazolo[1,5-a]pyridin-4-yl)quinolin-2(1H)-one]
0.01 to 0.1 | COc1ccc(-c2ccc3c(c2)CCC(=O)N3)c2c(Cl)c(C(F)(F)F)nn12 [Example 116, 6-(3-Chloro-7-methoxy-2-trifluoromethylpyrazolo[1,5-a]pyridin-4-yl)-3,4-dihydroquinolin-2(1H)-one]
0.01 to 0.1 | COc1ccc(-c2ccc3c(c2)CCC(=O)N3C)c2c(Cl)c(C(F)(F)F)nn12 [Example 117, 6-(3-Chloro-7-methoxy-2-trifluoromethylpyrazolo[1,5-a]pyridin-4-yl)-1-methyl-3,4-dihydroquinolin-2(1H)-one]
0.01 to 0.1 | COc1ccc(-c2ccc3[nH]c(=O)ccc3c2)c2[nH]c(C(F)(F)F)nc12 [Example 118, 6-(4-Methoxy-2-trifluoromethyl-1H-benzo[d]imidazol-7-yl)quinolin-2(1H)-one; or 6-(7-methoxy-2-trifluoromethyl-1H-benzo[d]imidazol-4-yl)quinolin-2(1H)-one]
< 0.01 | COc1ccc(-c2ccc3[nH]c(=O)ccc3c2)c2cc(C(F)(F)F)oc12 [Example 119, 6-(7-Methoxy-2-trifluoromethylbenzofuran-4-yl)quinolin-2(1H)-one]
0.01 to 0.1 | COc1ccc(-c2ccc3[nH]c(=O)ccc3c2)c2cccnc12 [Example 120, 6-(8-Methoxyquinolin-5-yl)quinolin-2(1H)-one]
0.01 to 0.1 | COc1ccc(-c2ccc3c(c2)CC(C)NC3=O)c2cc(C(F)(F)F)nn12 (stereo not shown) [Example 122, 6-(7-Methoxy-2-trifluoromethylpyrazolo[1,5-a]pyridin-4-yl)-3-methyl-3,4-dihydroisoquinolin-1(2H)-one]
< 0.01 | COc1ccc(-c2ccc3c(=O)[nH]cc(Cl)c3c2)c2c(Cl)c(C(F)(F)F)nn12 [Example 125, 4-Chloro-6-(3-chloro-7-methoxy-2-trifluoromethylpyrazolo[1,5-a]pyridin-4-yl)isoquinolin-1(2H)-one]
< 0.01 | COc1ccc(-c2ccc3c(=O)[nH]cc(Cl)c3c2)n2c(Cl)c(C(F)(F)F)nc12 [Example 126, 4-Chloro-6-(3-chloro-8-methoxy-2-trifluoromethylimidazo[1,2-a]pyridin-5-yl)isoquinolin-1(2H)-one]
< 0.01 | CNc1ccc(-c2ccc3c(ccc(=O)n3C)c2)c2c(Cl)c(C(F)(F)F)nn12 [Example 137]
< 0.01 | CNc1ccc(-c2ccc3c(=O)[nH]cc(Cl)c3c2)c2cc(C(F)(F)F)nn12 [Example 138, 4-Chloro-6-(7-(methylamino)-2-trifluoromethylpyrazolo[1,5-a]pyridin-4-yl)isoquinolin-1(2H)-one]
< 0.01 | CNc1ccc(-c2ccc3c(=O)[nH]cc(Cl)c3c2)c2c(Cl)c(C(F)(F)F)nn12 [Example 139, 4-Chloro-6-(3-chloro-7-(methylamino)-2-trifluoromethylpyrazolo[1,5-a]pyridin-4-yl)isoquinolin-1(2H)-one]
< 0.01 | Nc1ccc(-c2ccc3[nH]c(=O)ccc3c2)c2cc(C(F)(F)F)nn12 [Example 140, 6-(7-Amino-2-trifluoromethylpyrazolo[1,5-a]pyridin-4-yl)quinolin-2(1H)-one]
0.01 to 0.1 | Nc1ccc(-c2ccc3c(=O)[nH]cc(Cl)c3c2)c2cc(C(F)(F)F)nn12 [Example 141, 6-(7-Amino-2-trifluoromethylpyrazolo[1,5-a]pyridin-4-yl)-4-chloro isoquinolin-1(2H)-one]
< 0.01 | CNc1ccc(-c2ccc3c(=O)[nH]cc(Cl)c3c2)n2cc(C(F)(F)F)nc12 [Example 144, 4-Chloro-6-(8-(methylamino)-2-trifluoromethylimidazo[1,2-a]pyridin-5-yl)isoquinolin-1(2H)-one]
